Measured values from patent publication US10913750B2, “Tubulin-binding compounds, compositions and uses related thereto” (The Regents of the University of California, priority 2015, dated 2021).

How the values were obtained:
HeLa cells [1] = assay: CellTiter-Glo cell viability, HeLa cells; type: cell-based; conditions: Homo sapiens; HeLa cells, 72 hours, CellTiter-Glo
Procedure: (§1) The cell viability IC50 of each compound was determined using Promega CellTiter-Glo Luminescent Cell Viability Assay kit by measuring the total ATP levels to quantify the number of metabolically active cells upon drug treatment as described in Crouch et al., J Immunol Methods 1993, 160, (1), 81-8. Briefly, the compounds were suspended in DMSO at 10 mM and diluted in 384 plates (20 μl/well in DMSO) in triplicate by a 14-point titration (12 nM to 100 μM). 50 μl of HeLa cells or patient derived glioblastoma cells (HK-309) (2000 cells/well) were then treated with the prepared dilutions of the drugs (0.5 μl) and incubated at 37° C. and 5% CO2. 72 hours later 50 μl of CellTiter-Glo reagent was added to each well followed by a 2 minutes shaking and a 10-minute incubation to lyse the cells. The relative luminescent intensity units (RLU) of each well was measured using a Tecan M1000 microplate reader (Tecan Group Ltd.) with its green filter and 1 second integration time.
(§2) Cells used in Example 2 and other examples disclosed herein were cultured as follows: Adherent HeLa cells and patient derived glioblastoma cells were grown with 5% CO2 at 37° C. in F12:DMEM 50:50 medium (Invitrogen) containing 10% FBS and 1% penicillin/streptomycin. To obtain HeLa cells synchronized in mitosis, cycling cells were treated with 2 mM thymidine (Sigma-Aldrich) for eighteen hours, washed three times with PBS, and released into fresh media until they entered mitosis eight hours post-release. Patient-derived glioblastoma cells (HK-309) were collected and grown with approval from the UCLA Institutional Review Board. HK-309 was derived from a recurrent glioblastoma taken from a person. The cells were initially propagated as cancer stem cell-containing spheres in serum-free medium containing basic fibroblast growth factor and epidermal growth factor (Preprotech) as described previously by Visnyei et al., Mol Cancer Ther 2011, 10, (10), 1818-28.
For mitotic arrest IC50s, cells were treated with a twenty-point-2-fold-titration (190 pM to 10 μM) of each compound tested for 20 hours. For cell viability IC50s, cells were treated with a fourteen-point-2-fold-titration (12.2 nM to 100 μM). Mitotic arrest IC50 was determined by measuring the percent G2/M arrest using the Vybrant DyeCycle Green (Invitrogen) assay described above. Cell viability IC50 was determined using the CellTiter-Glo Assay (Promega), which measures total ATP levels. Plates were read with a Tecan M1000 micro-plate reader at 540 nm. The CDD software was used for generating IC50 and IC90 values.

HeLa cells [2] = assay: Microtubule stability by immunofluorescence microscopy; type: cell-based; conditions: increasing concentrations, anti-α-tubulin staining
Procedure: Next, microtubule stability was analyzed in HeLa cells treated with increasing concentrations of each of these three compounds by fixing the cells with 4% paraformaldehyde, staining them with Hoechst 33342 (DNA dye) to visualize their DNA and anti-α-tubulin antibodies to visualize microtubule structures and then imaging them by immunofluorescence microscopy.

tubulin = molecular target: T1, tubulin (Sus scrofa, UniProt P02554); assay: In vitro tubulin polymerization assay (HTS-tubulin polymerization kit, Cytoskeleton); type: biochemical; conditions: 3 μM compound, fluorescence, 70 minutes at 37° C.
T1 construct: purchased Cytoskeleton Inc. BK011P
T1 sequence (P02554 whole entry): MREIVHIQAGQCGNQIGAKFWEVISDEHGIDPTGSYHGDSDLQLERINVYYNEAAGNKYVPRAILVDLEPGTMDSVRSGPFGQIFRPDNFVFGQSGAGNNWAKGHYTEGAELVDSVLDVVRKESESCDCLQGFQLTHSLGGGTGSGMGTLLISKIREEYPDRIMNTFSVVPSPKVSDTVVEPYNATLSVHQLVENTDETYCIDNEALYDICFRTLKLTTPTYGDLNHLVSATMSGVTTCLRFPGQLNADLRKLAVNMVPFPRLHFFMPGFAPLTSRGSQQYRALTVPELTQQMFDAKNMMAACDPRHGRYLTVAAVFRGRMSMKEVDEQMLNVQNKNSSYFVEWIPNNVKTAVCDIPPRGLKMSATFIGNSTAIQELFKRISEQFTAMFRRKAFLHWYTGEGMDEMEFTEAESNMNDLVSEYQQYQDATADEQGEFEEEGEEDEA
T1 sequence (P02550 whole entry partner): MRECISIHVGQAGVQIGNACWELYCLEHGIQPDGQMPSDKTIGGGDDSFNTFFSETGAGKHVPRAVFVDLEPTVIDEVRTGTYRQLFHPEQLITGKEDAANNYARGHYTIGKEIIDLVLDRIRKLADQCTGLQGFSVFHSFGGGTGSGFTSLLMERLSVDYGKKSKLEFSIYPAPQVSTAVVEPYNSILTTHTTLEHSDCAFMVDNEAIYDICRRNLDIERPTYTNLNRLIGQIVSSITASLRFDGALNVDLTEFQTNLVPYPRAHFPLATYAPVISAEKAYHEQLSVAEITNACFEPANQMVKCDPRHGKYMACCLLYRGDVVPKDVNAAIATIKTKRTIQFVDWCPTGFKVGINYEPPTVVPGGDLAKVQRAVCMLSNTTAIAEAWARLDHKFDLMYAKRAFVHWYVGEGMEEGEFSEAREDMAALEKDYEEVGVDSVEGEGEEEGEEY
Procedure: 1.5 ul of 10× strength compound, 20 μl of tubulin solution and Triton X-100 at a final concentration of 0.01% were added to each well in a 384 well plate. The reactions were assembled on ice to prevent tubulin pre-polymerization. For kinetic measurements, microtubule polymerization was monitored by reading the fluorescence at 420 nm (due to the incorporation of a fluorescent reporter into microtubules as polymerization occurs) every ten seconds using a Tecan M1000 microplate reader (FIG. 6B). […] Fluorescence increased as polymerization occurred, due to the incorporation of 4′,6-diamidino-2-phenylindole. Fluorescence was monitored every minute for 70 minutes at 37° C.
Tubulin polymerization reactions were carried out according to the manufacturer (Cytoskeleton, BK011P) in the presence of 3 μM colchicine, MI-181, taxol or DMSO. Polymerization was monitored with a Tecan M1000 micro-plate reader at 420 nm for 70 minutes at 37° C. The results are depicted in FIG. 11.

[3] = tested on: patient-derived glioblastoma cells (HK-309); assay: CellTiter-Glo cell viability, patient-derived glioblastoma cells; type: cell-based; conditions: HK-309, 72 hours
Procedure: as §1, §2

M308 = assay: Melanoma colony formation, M308; type: cell-based; conditions: 10 nM, M308 (second value of pair)
Procedure: (§3) To determine if MI-181 had broad anti-cancer activity, we treated a diverse panel of cancer cell lines including cervical adenocarcinoma (HeLa), breast adenocarcinoma (MCF7), melanoma (M233), osteosarcoma (U205), acute lymphoblastic leukemia (CCRF-CEM), non-small cell lung carcinoma (NCI-H460), and breast adenocarcinoma (MCF7) with MI-181 and determined its cell viability IC50 (FIGS. 13A and 13B). […] Therefore, the efficacy of MI-181 was analyzed in a panel of melanoma cell lines with defined genetic backgrounds including BRAF^V600E and NRAS^Q61L mutations and varied sensitivities to Vemurafenib (BRAF inhibitor) and Trametinib (MEK inhibitor), which are currently used to treat BRAF^V600E melanomas^43,44 (FIG. 10c). […] As a general trend BRAF^V600E cell lines were slightly more sensitive than NRAS^Q61L cell lines and MI-181 was effective in Vemurafenib and Trametinib resistant cell lines (FIG. 10c and Table 3). Finally, we tested the ability of MI-181 to inhibit melanoma colony formation using the M233 and M308 cell lines (both resistant to Vemurafenib). Indeed, MI-181 was a potent inhibitor of colony formation (percentage colony formation for 10 nM MI-181=0.2±0.1 and 0.8±0.7; for 10 nM colchicine=0.1±0.06 and 1.5±0.5; and for 10 nM Vemurafenib=94±7 and 102±5) (FIG. 10d). Thus, MI-181 is a potent inhibitor of melanoma cell lines.

M233 = assay: Melanoma colony formation, M233; type: cell-based; conditions: 10 nM, M233 (first value of pair)
Procedure: as §3

## O=c1[nH]c(/C=C/c2ccc(F)cc2F)nc2sc3c(c12)CCCC3 [Compound 10a, (E)-2-(2,4-difluorostyryl)-5,6,7,8-tetrahydrobenzo[4,5]thieno[2,3-d]pyrimidin-4(3H)-one]
HeLa cells [1]
  IC50: 0.246 µM
HeLa cells [2]
  microtubule stability in treated cells: destabilized in a drug dose-dependent manner
tubulin
  inhibition of microtubule (tubulin) polymerization in vitro: potent inhibitors of microtubule polymerization similar to colchicine
[3]
  IC50: 283 nM

## O=c1[nH]c(/C=C/c2cc(F)ccc2F)nc2sc3c(c12)CCCC3 [Compound 10b, (E)-2-(2,5-difluorostyryl)-5,6,7,8-tetrahydrobenzo[4,5]thieno[2,3-d]pyrimidin-4(3H)-one]
HeLa cells [1]
  IC50: 0.159 µM
HeLa cells [2]
  microtubule stability in treated cells: destabilized in a drug dose-dependent manner
tubulin
  inhibition of microtubule (tubulin) polymerization in vitro: potent inhibitors of microtubule polymerization similar to colchicine
[3]
  IC50: 113 nM

## O=c1[nH]c(/C=C/c2ccc(F)cc2)nc2sc3c(c12)CCCC3 [Compound 10c, (E)-2-(4-fluorostyryl)-5,6,7,8-tetrahydrobenzo[4,5]thieno[2,3-d]pyrimidin-4(3H)-one]
HeLa cells [1]
  IC50: 1.11 µM

## COc1cccc(/C=C/c2nc3sc4c(c3c(=O)[nH]2)CCCC4)c1 [Compound 10d, (E)-2-(3-methoxystyryl)-5,6,7,8-tetrahydrobenzo[4,5]thieno[2,3-d]pyrimidin-4(3H)-one]
HeLa cells [1]
  IC50: 4.21 µM

## CSc1ccc(/C=C/c2nc3sc4c(c3c(=O)[nH]2)CCCC4)cc1 [Compound 10e, (E)-2-(4-methylthiostyryl)-5,6,7,8-tetrahydrobenzo[4,5]thieno[2,3-d]pyrimidin-4(3H)-one]
HeLa cells [1]
  IC50: 6.31 µM

## CCOc1ccc(/C=C/c2nc3sc4c(c3c(=O)[nH]2)CCCC4)cc1OC [Compound 10f, (E)-2-(4-ethoxy-3-methoxystyryl)-5,6,7,8-tetrahydrobenzo[4,5]thieno[2,3-d]pyrimidin-4(3H)-one]
HeLa cells [1]
  IC50: 25.9 µM

## Cc1cccc(/C=C/c2nc3sc4c(c3c(=O)[nH]2)CCCC4)c1 [Compound 10g, (E)-2-(3-methylstyryl)-5,6,7,8-tetrahydrobenzo[4,5]thieno[2,3-d]pyrimidin-4(3H)-one]
HeLa cells [1]
  IC50: > 100 µM

## COc1ccc(/C=C/c2nc3sc4c(c3c(=O)[nH]2)CCCC4)cc1 [Compound 10h, (E)-2-(4-methoxystyryl)-5,6,7,8-tetrahydrobenzo[4,5]thieno[2,3-d]pyrimidin-4(3H)-one]
HeLa cells [1]
  IC50: 50.9 µM

## O=c1[nH]c(/C=C/c2ccc(Br)cc2)nc2sc3c(c12)CCCC3 [Compound 10i, (E)-2-(4-bromostyryl)-5,6,7,8-tetrahydrobenzo[4,5]thieno[2,3-d]pyrimidin-4(3H)-one]
HeLa cells [1]
  IC50: > 100 µM

## O=c1[nH]c(/C=C/c2ccc(F)c(F)c2)nc2sc3c(c12)CCCC3 [Compound 10j, (E)-2-(3,4-difluorostyryl)-5,6,7,8-tetrahydrobenzo[4,5]thieno[2,3-d]pyrimidin-4(3H)-one]
HeLa cells [1]
  IC50: > 100 µM

## COc1ccc(/C=C/c2nc3sc4c(c3c(=O)[nH]2)CCCC4)cc1OC [Compound 10k, (E)-2-(3,4-dimethoxystyryl)-5,6,7,8-tetrahydrobenzo[4,5]thieno[2,3-d]pyrimidin-4(3H)-one]
HeLa cells [1]
  IC50: > 100 µM

## CCOc1ccc(/C=C/c2nc3sc4c(c3c(=O)[nH]2)CCCC4)cc1 [Compound 10l, (E)-2-(4-ethoxystyryl)-5,6,7,8-tetrahydrobenzo[4,5]thieno[2,3-d]pyrimidin-4(3H)-one]
HeLa cells [1]
  IC50: > 100 µM

## Cc1ccc(/C=C/c2nc3sc4c(c3c(=O)[nH]2)CCCC4)cc1 [Compound 10m, (E)-2-(4-methylstyryl)-5,6,7,8-tetrahydrobenzo[4,5]thieno[2,3-d]pyrimidin-4(3H)-one]
HeLa cells [1]
  IC50: > 100 µM

## O=c1[nH]c(/C=C/c2ccccc2C(F)(F)F)nc2sc3c(c12)CCCC3 [Compound 10u]
HeLa cells [1]
  IC50: > 100 µM

## CCCS(=O)(=O)Nc1ccc(F)c(C(=O)c2c[nH]c3ncc(-c4ccc(Cl)cc4)cc23)c1F [Vemurafenib]
M308
  percentage colony formation: 102±5
M233
  percentage colony formation: 94±7

## COc1cc2c(c(OC)c1OC)-c1ccc(OC)c(=O)cc1[C@@H](NC(C)=O)CC2 [colchicine]
M308
  percentage colony formation: 1.5±0.5
M233
  percentage colony formation: 0.1±0.06
